According to PMC6413339 (EBioMedicine, 2019):

Experiments:
[1] = test system: MOLM-14 (ITD, F691 L) cells; test: Antiproliferative activity (CellTitre-Blue, 72 h); format: cell-based, human; settings: 72 h incubation, triplicates; listed as 20 (HSN459); read-out: IC50 (mean ±SD, nM) MOLM-14 (ITD, F691 L)
Experimental: (§1) Cells were seeded into 96-well tissue culture-treated plates at 2.0 × 10^4 cells/mL for up to 24 h. DMSO stock solutions of compounds were serially diluted first in DMSO and subsequently into RPMI before being added to the cell cultures in triplicates, with 10 μM being the highest tested concentration. The plates were incubated for 72 h as above. The CellTitre-Blue assay (Promega, Madison WI) was then added to the cultures and incubated a further 4 h before the fluorescence measured following the manufacturers recommendations. The fluorescence data from compounds were normalized to that DMSO and the resulting data fitted to a non-linear regression equation to obtain IC50 using GraphPad Prism 5.0 Software (La Jolla, CA, USA).

[2] = test system: MOLM-14 (ITD, D835Y) cells; test: Antiproliferative activity (CellTitre-Blue, 72 h); format: cell-based, human; settings: 72 h incubation, triplicates; listed as 20 (HSN459); read-out: IC50 (mean ±SD, nM) MOLM-14 (ITD, D835Y)
Experimental: as §1

MV4–11 cells = test: Antiproliferative activity (CellTitre-Blue, 72 h); format: cell-based, human; settings: Homo sapiens, MV4-11, 72 h, 72 h incubation, triplicates; read-out: IC50 (mean ±SD, nM) MV4–11
Experimental: as §1

MOLM-14 cells = test: Antiproliferative activity (CellTitre-Blue, 72 h); format: cell-based, human; settings: Homo sapiens, MOLM-14; 72 h incubation, triplicates; read-out: IC50 (mean ±SD, nM) MOLM-14
Experimental: as §1

MV4–11-luc cells = test: In vivo efficacy, orthotopic human AML model
Experimental: The in vivo efficacy of compounds was assessed in an orthotopic human AML model in NSG (NOD scid gamma, NOD-scid IL2Rg^null) mice that were bred at University of Maryland Baltimore (mating pairs acquired from Jackson Laboratories; Maine). […]. Three days later, engraftment was assessed by imaging on a Xenogen IVIS-2 Imaging System (Alameda) after an intraperitoneal (IP) injection of 150 mg/kg luciferin. Mice were sorted into four or five groups (n = 5) so that mean intensity (i.e., disease burden) was equal. Dosing started on day of sorting. Compounds were dissolved in 85% PBS (pH 7.4) buffer containing 10% DMSO and 5% Cremophore. The vehicle (buffer without compounds) was used as control. Mice were injected 3 to 5 days per week via IP injection. Mice were weighed on day of dosing and imaged once per week. […]. All mice were housed in a 12-h light/dark cycle with access to food and water ad libitum. Studies were performed with Institutional Animal Care and Use Committee (UMB and Purdue University) approval.
[…]. Female mice were dosed daily for 5 days via intraperitoneal injection and then monitored for an additional week for weight loss, a sign of toxicity in mice. […] To evaluate the anti-leukemic efficacy in vivo, six-week-old female NSG or NRG mice were injected intravenously with FLT3-ITD expressing acute myeloid leukemia cells (MV4–11), expressing luciferase. […] Dosing (i.p) with the compounds was then started. The mice were dosed with 25 mg/kg of the compounds three times a week (MWF). […] […].

Src = biological target: T1, Src (Homo sapiens, UniProt P12931); test: Cell-free kinase assay (Reaction Biology, ADP-Glo); format: biochemical
T1 construct: purchased Invitrogen PR4336E
Experimental: (§2) Cell-free kinase activity assays were performed at Reaction Biology Corporation. Briefly, kinases were incubated with substrates, 100 μM ATP and a 3-fold serial dilution of compounds starting at 1 μM. DMSO was used as control. […] Experiments were performed in duplicates. The concentrations of kinases and substrates used in the assays are indicated on Table S1. Kinase activity was quantified using the ADP-Glo™ Kinase Assay System (Promega, Madison, WI) following the manufacturer's recommendations.

FLT3-ITD = FLT3-ITD (Homo sapiens, UniProt P36888, ITD); test: Cell-free kinase assay, dose-response (Reaction Biology, ADP-Glo); format: biochemical; settings: FLT3-ITD 100 nM; ATP 100 μM; read-out: IC50 against FLT3-ITD
Experimental: as §2

FLT3 = biological target: T2, FLT3 (Homo sapiens, UniProt P36888); test: Cell-free kinase assay, single dose (Reaction Biology, ADP-Glo); format: biochemical; settings: inhibitor 500 nM; 100 μM ATP; average of duplicate
T2 construct: purchased Invitrogen PV3182
T2 sequence (P36888 564-993 limits assumed): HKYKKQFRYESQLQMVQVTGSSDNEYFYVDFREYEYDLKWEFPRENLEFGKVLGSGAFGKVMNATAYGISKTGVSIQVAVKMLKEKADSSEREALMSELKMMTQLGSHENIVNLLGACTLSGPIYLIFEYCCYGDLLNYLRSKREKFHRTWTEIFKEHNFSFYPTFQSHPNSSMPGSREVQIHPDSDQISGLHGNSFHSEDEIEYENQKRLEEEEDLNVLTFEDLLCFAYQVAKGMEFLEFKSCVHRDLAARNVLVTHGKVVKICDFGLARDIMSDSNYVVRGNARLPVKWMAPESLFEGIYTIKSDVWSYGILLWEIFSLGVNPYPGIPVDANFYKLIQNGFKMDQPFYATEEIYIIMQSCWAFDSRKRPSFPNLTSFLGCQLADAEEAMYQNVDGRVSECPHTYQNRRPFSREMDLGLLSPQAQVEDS
Experimental: as §2, with “Briefly, kinases were incubated with substrates, 100 μM ATP and a 3-fold serial dilution of compounds starting at 1 μM.” left out

T1 sequence (P12931 whole entry): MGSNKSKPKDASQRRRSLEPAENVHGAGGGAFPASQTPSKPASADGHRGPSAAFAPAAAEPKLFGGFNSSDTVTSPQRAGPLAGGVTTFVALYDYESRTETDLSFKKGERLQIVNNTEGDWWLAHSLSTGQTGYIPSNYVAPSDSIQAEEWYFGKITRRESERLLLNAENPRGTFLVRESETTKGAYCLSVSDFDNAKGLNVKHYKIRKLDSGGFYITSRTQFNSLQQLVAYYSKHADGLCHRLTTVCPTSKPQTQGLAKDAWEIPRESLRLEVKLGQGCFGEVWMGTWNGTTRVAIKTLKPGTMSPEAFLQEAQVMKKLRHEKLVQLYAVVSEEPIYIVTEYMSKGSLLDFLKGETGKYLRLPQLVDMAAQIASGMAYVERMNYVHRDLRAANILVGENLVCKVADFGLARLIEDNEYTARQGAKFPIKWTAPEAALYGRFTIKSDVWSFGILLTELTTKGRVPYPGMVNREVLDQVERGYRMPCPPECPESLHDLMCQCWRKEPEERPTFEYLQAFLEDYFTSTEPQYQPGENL

SMILES: Cc1ncc(C(=O)Nc2ccc(CN3CCN(C)CC3)c(C(F)(F)F)c2)cc1C#Cc1cnc(N)c2ncccc12 [Compound 20]
- IC50 [1]: 0.9 ± 0.004 nM
- IC50 [2]: 4 ± 0.02 nM
- IC50 (MV4–11 cells): 0.3 ± 0.004 nM
- IC50 (MOLM-14 cells): 0.2 ± 0.002 nM
- body weight in efficacy study (MV4–11-luc cells; 25 mg/Kg i.p. three times a week, after one week): lost weight
- reduction in leukemia burden (MV4–11-luc cells; 25 mg/kg i.p. three times a week (MWF), NSG or NRG mice): > 99%
- tolerability in efficacy study (MV4–11-luc cells; dose reduced to 10 mg/kg): tolerable
- IC50 (Src; Src 0.6 nM, ATP 100 μM, read-out: IC50 against Src): 12.2 nM
- inhibition at 0.5 µM (Src; inhibitor 500 nM, 100 μM ATP, average of duplicate): 100%
- IC50 (FLT3-ITD): 4.8 nM
- inhibition at 0.5 µM (FLT3): 97%
